From ChEMBL document CHEMBL1201862, “PubChem BioAssay data set” (2004)
The source made the active and inactive calls.

Legend:
[1] = target: Dual specificity protein phosphatase 6 (Rattus norvegicus, UniProt Q64346); assay: MKP-3 phosphatase inhibitors, primary screen, biochemical, rat enzyme, in vitro (AID 425)
[2] = target: Peroxisome proliferator-activated receptor gamma/Nuclear receptor corepressor 2 (Homo sapiens, UniProt P37231+Q9Y618); assay: Counterscreen for NR2E3 inverse agonists: TR-FRET-based biochemical high throughput dose response assay to identify inverse agonists of the interaction between peroxisome proliferator-activated receptor gamma (PPARg) and nuclear receptor co-repressor 2 (NCOR2).; format: functional
[3] = target: Photoreceptor-specific nuclear receptor (Homo sapiens, UniProt Q9Y5X4); assay: NR2E3 inverse agonists, dose response, biochemical, TR-FRET (AID 463256); format: functional
Sequence of Photoreceptor-specific nuclear receptor (Q9Y5X4 whole entry): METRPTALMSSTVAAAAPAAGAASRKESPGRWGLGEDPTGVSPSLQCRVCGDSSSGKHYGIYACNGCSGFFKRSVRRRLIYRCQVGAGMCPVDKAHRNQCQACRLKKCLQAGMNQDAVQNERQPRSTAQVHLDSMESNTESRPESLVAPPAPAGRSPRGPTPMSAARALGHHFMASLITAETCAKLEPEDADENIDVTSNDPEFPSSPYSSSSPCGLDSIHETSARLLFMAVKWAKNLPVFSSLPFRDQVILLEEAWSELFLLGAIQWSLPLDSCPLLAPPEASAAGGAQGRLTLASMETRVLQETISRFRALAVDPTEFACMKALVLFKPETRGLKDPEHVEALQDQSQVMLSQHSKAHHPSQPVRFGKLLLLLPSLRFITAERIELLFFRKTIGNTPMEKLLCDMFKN

[4] = tested on: Danio rerio; assay: In Vivo Angiogenesis Dose-Response Confirmation. [Related pubchem assays: 732 (Assay preceding this confirmatory assay.)]; format: functional, organism-based
[5] = HeLa 2N DNA content increase, dose response, cell-based, IC50 (AID 1117349); format: functional
[6] = Concentration-dependent survival of SW480 colon cancer line, luminescence detection with CellTiter-Glo, half-maximal inhibitory concentration (AID 1117338); format: functional
[7] = RKO cell viability reduction, dose response, CellTiter-Glo luminescence (AID 1117322); format: functional
[8] = cytotoxicity toward HCT116 cells – cell-based, CellTiter-Glo luminescence, IC50, dose response (AID 1117332); format: functional; conditions: HCT-116
[9] = SNU-C1 cell viability reduction, dose response, CellTiter-Glo luminescence (AID 1117323); format: functional, cell-based
[10] = cytotoxicity toward Colo320 cells – cell-based, CellTiter-Glo luminescence, IC50, dose response (AID 1117334); format: functional; conditions: COLO 320
[11] = HeLa 4N DNA content increase, dose response, cell-based, IC50 (AID 1117351); format: functional
[12] = cytotoxicity toward HT-29 cells – cell-based, CellTiter-Glo luminescence, IC50, dose response (AID 1117330); format: functional
[13] = CellTiter-Glo luminescent dose response of DLD-1 viability loss (AID 1117352); format: functional
[14] = target: T1, Aminopeptidase N (Plasmodium falciparum FcB1/Columbia, UniProt O96935); assay: P. falciparum M1AAP inhibitors, biochemical, fluorogenic H-Leu-NHMec substrate, 1536-well (AID 1445); parameters: species or system Plasmodium falciparum 3D7, 3D7
T1 sequence (O96935 whole entry): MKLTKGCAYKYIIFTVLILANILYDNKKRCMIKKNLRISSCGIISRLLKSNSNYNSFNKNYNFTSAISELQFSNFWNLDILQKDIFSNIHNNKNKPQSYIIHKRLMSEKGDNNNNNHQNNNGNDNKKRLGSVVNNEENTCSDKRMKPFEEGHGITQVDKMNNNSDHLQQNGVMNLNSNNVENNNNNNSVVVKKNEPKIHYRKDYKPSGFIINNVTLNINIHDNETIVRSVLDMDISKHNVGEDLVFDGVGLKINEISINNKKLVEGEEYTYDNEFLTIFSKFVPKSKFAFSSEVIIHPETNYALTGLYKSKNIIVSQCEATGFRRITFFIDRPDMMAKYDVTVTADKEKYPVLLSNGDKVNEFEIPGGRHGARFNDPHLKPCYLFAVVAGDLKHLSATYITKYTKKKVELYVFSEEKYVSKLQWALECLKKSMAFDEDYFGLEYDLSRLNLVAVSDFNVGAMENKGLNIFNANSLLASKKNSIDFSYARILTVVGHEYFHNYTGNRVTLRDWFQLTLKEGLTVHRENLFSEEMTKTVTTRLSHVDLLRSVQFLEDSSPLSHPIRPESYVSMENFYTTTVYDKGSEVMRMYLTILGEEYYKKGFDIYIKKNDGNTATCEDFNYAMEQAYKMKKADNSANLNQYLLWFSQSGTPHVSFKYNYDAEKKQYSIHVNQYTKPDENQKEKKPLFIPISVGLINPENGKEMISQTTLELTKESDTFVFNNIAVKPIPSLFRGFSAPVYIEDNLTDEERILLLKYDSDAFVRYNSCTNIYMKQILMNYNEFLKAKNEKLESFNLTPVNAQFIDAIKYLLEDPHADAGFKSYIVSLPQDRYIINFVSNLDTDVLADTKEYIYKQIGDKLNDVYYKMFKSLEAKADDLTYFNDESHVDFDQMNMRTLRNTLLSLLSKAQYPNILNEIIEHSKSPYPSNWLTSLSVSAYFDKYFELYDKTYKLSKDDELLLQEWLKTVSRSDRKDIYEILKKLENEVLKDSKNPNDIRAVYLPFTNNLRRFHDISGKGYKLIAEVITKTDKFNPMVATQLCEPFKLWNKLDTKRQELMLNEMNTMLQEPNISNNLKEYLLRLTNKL

[15] = target: T2, SUMO-activating enzyme (Homo sapiens, UniProt Q9UBT2); assay: SUMOylation inhibitor hit validation, confirmation, SUMOylation inhibitor project, biochemical, AlphaScreen (AID 2018); format: functional
T2 sequence (Q9UBE0 whole entry): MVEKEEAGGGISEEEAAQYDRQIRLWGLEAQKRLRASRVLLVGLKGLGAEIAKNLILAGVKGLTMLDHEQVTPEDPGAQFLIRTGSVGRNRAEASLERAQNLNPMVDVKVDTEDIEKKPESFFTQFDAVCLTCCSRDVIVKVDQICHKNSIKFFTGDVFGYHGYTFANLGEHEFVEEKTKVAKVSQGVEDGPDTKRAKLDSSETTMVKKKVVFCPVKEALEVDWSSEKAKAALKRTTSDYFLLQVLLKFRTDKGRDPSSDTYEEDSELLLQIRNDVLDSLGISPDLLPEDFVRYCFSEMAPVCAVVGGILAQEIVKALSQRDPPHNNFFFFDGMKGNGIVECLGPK
T2 sequence (Q9UBT2 whole entry): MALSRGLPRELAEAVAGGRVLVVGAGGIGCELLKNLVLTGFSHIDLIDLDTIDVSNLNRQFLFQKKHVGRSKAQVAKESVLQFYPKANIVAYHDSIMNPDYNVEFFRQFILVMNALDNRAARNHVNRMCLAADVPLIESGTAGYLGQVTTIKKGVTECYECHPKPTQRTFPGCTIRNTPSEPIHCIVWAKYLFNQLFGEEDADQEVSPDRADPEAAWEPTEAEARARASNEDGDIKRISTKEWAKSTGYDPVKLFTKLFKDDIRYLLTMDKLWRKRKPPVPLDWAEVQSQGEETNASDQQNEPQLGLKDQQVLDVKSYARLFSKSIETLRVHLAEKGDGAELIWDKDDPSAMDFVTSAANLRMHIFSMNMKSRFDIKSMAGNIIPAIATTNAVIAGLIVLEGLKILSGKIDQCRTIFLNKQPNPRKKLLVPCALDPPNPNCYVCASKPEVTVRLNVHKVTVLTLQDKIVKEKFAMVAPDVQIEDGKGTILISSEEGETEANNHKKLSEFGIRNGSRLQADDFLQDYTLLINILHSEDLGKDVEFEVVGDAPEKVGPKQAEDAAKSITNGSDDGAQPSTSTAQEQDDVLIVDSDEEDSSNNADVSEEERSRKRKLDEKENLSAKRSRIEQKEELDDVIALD

[16] = target: T2, SUMO-activating enzyme; assay: inhibitors of in vitro SUMOylation cascade, primary screen, biochemical, HTRF, uHTS (AID 2006); format: protein-complex assay
[17] = target: Heat shock protein HSP 90-alpha (Homo sapiens, UniProt P07900); assay: Luminescence-based dose response biochemical high throughput screening assay for inhibitors of the Heat Shock Protein 90 (HSP90). [Related pubchem assays: 1831 (Summary AID.), 1846 (Confirmation screen.), 1789 (Primary screen.)]
[18] = target: SUMO E1/E2 (Homo sapiens, UniProt P63279+Q9UBE0+Q9UBT2); assay: SAR analysis of SUMOylation using HTRF in an in-Vitro dose response assay. [Related pubchem assays (depositor defined):AID2006, AID2011, AID2018, AID2069, AID2658]; format: functional
Sequence of SUMO E1/E2 (Q9UBE0 whole entry): as the sequence (Q9UBE0 whole entry) above
Sequence of SUMO E1/E2 (Q9UBT2 whole entry): as the sequence (Q9UBT2 whole entry) above
Sequence of SUMO E1/E2 (P63279 whole entry): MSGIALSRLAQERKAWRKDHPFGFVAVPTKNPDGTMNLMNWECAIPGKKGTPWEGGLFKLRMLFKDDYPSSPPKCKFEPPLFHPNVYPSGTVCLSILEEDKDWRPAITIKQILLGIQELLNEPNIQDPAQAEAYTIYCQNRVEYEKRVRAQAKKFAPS

[19] = target: T3, Tyrosyl-DNA phosphodiesterase 2 (Homo sapiens, UniProt O95551); assay: human TDP2 enzyme inhibitors, dose response, biochemical, epi absorbance, IC50 (AID 743297)
T3 sequence (O95551 whole entry): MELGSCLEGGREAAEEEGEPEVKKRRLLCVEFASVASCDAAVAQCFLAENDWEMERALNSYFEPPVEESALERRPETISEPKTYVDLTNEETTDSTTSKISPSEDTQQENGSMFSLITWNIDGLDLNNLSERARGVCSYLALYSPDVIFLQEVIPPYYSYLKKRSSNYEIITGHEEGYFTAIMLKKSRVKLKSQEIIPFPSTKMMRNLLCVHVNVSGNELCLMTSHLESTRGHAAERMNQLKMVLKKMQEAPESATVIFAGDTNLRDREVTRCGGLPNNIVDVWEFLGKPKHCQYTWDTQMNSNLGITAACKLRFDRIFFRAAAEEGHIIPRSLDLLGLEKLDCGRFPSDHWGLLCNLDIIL

[20] = target: Prothrombin (Homo sapiens, UniProt P00734); assay: Thrombin 1536 HTS Dose Response Confirmation. [Related pubchem assays: 1046 (Thrombin 1536 HTS; hits were confirmed in this assay)]; format: functional
[21] = target: Mitogen-activated protein kinase 10 (Homo sapiens, UniProt P53779); assay: Dose response biochemical screening assay for inhibitors of c-Jun N-Terminal Kinase 3 (JNK3). [Related pubchem assays: 746 ]
Sequence of Mitogen-activated protein kinase 10 (P53779 whole entry): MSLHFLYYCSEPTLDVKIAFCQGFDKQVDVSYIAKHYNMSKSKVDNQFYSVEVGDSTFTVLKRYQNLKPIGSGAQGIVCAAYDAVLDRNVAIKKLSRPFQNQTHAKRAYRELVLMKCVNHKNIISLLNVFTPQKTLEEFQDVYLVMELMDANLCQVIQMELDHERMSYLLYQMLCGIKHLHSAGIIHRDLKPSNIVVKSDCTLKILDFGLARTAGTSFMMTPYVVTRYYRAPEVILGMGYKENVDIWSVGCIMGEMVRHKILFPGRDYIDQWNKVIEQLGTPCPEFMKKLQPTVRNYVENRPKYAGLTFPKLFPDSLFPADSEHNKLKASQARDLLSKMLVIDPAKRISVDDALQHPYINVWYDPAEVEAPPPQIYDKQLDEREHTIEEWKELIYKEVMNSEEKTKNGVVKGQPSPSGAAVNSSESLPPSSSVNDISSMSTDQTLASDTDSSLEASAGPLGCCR

[22] = target: E3 ubiquitin-protein ligase Mdm2 (Homo sapiens, UniProt Q00987); assay: enhancers of MDM2-luciferase reporter signal, concentration-effect titration, project on inhibitors of MDM2 ubiquitin ligase, cellular assay, luminescent readout, 384-well plate format (AID 1394); format: functional;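 further: MDM2 E3 inhibitors raise luminescence so EC50 is for signal enhancement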
Sequence of E3 ubiquitin-protein ligase Mdm2 (Q00987 whole entry): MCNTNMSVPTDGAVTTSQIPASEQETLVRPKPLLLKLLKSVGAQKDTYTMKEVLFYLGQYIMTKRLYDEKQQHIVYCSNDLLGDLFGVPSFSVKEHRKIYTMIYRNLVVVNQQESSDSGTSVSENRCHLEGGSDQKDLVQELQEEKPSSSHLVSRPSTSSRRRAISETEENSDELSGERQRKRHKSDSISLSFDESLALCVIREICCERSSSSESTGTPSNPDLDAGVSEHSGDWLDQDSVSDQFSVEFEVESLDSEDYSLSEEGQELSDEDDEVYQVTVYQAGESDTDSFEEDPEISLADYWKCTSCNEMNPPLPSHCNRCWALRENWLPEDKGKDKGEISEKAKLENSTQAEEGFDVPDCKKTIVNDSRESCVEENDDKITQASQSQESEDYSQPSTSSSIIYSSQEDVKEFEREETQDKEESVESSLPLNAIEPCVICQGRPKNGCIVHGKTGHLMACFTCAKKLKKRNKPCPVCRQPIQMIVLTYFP

[23] = target: Luciferin 4-monooxygenase (Photinus pyralis, UniProt P08659); assay: firefly luciferase enzyme inhibitors, dose response, biochemical, luminescence (AID 1891)
Sequence of Luciferin 4-monooxygenase (P08659 whole entry): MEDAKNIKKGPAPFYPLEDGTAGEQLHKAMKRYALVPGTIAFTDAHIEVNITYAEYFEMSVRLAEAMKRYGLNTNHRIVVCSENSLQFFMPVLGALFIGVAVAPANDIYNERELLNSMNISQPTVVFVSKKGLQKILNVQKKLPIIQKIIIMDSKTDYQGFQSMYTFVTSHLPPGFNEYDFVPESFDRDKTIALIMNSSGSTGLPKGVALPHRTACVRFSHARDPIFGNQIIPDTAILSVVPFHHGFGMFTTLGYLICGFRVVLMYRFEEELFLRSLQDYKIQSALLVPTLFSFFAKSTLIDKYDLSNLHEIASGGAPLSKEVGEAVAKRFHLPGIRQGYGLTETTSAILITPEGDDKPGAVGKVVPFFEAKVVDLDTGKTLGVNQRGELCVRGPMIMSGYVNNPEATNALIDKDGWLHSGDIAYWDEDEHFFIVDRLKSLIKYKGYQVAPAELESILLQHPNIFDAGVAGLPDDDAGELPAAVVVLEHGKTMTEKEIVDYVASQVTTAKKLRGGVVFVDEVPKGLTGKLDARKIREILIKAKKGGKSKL

[24] = Luminescence Cell-Based Dose Confirmation HTS to Identify Inhibitors of Platelet Dense Granule Release. [Related pubchem assays: 1663 (Primary HTS), 1678 (Summary of Project)]; format: functional
[25] = Fluorescence Cell-Based Dose Response to Identify Inhibitors of Thrombin Receptor-Activating Peptide SFLLRN-Mediated P-Selectin Induction on Platelets. [Related pubchem assays: 1663 (Primary HTS), 1889 (retest at dose ), 1891 (counterscreen), 1678 (Project Summary)]; format: functional
[26] = target: Diphosphomevalonate decarboxylase (Streptococcus pneumoniae serotype 2 (strain D39 / NCTC 7466), UniProt Q9FD53); assay: S. pneumoniae DPM-DC inhibition retest, confirmation, biochemical, cuvette format, coupled NADH fluorescence (AID 1028); format: functional
Sequence of Diphosphomevalonate decarboxylase (Q9FD53 whole entry): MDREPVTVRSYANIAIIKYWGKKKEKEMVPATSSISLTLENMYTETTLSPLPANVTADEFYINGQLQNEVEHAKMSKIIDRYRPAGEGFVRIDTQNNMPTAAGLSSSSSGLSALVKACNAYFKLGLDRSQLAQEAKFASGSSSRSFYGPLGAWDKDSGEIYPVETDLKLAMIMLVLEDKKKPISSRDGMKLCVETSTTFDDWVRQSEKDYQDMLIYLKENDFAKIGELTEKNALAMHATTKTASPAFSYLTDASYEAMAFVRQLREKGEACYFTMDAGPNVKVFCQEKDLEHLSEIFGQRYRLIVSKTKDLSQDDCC

Sequence of Dual specificity protein phosphatase 6 (Q64346 whole entry): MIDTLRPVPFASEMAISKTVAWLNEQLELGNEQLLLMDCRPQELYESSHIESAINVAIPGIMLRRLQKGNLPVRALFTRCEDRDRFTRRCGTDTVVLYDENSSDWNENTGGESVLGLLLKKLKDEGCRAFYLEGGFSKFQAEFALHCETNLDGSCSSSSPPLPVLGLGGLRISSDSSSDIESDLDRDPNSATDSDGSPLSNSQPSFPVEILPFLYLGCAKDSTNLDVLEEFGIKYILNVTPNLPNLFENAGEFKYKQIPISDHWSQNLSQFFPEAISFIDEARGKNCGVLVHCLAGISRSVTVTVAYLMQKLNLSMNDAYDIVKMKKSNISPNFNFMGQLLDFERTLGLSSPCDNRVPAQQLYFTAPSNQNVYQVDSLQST

CCN(CC)CCCN1C(=O)C(O)=C(C(=O)c2ccccc2)C1c1ccccn1 (stereo unspecified)
IC50 [1]: > 100 µM (not active)

CC(=O)Nc1cccc(Oc2nc(C(F)(F)F)nc3ccccc23)c1
IC50 [2]: > 39.8 µM (not active)
IC50 [3]: 18.7 µM (not active)

Fc1ccc(C(OCCN2CCN(CCCc3ccccc3)CC2)c2ccc(F)cc2)cc1
IC50 [4]: 5.73 µM (not active)
IC50 [5]: > 10 µM (inactive)
IC50 [6]: 2.07 µM (active)
IC50 [7]: 0.113 µM (active)
IC50 [8]: 4.87 µM (active)
IC50 [9]: 1.82 µM (active)
IC50 [10]: > 20 µM (inactive)
IC50 [11]: > 10 µM (inactive)
IC50 [12]: 1.49 µM (active)
IC50 [13]: 0.903 µM (active)

C=CCn1c(NS(=O)(=O)c2ccccc2)c(S(=O)(=O)c2ccc(C)cc2)c2nc3ccccc3nc21
IC50 [14]: 36.2 µM (active)
IC50 [15]: 0.88 µM (active)
IC50 [16]: 1.5 µM (active)
IC50 [17]: 1.61 µM (active)
IC50 [18]: 4.29 µM (active)
IC50 [19]: 68.1 µM (inactive)

Cc1ccc2c(c1)CC1(CN2C)C(=O)OC2(CCCCC2)OC1=O
IC50 [20]: 4.14 µM (active)
IC50 [21]: > 93.1 µM (not active)

COc1ccc(-c2nc(C)c(C(C)=O)n2O)cc1
EC50 [22]: 12.3 µM (not active)

Cc1nc(O)c(C#N)c(C)c1CSc1ncccn1
EC50 [23]: > 112 µM (not active)
EC50 [24]: 3.68 µM (active)
EC50 [25]: < 1 µM (active)

Cc1ccc(-n2sc3ccccc3c2=O)cc1S(=O)(=O)N1CCCC1
IC50 [26]: 4.15 µM (active)
